Consider 34 compounds from patent US9394261B2, “Aryl amine substituted pyrimidine and quinazoline and their use as anticancer drugs” (National Yang-Ming University, priority 2012, dated 2016).

The IC50 is the midpoint of a concentration-inhibition curve. The low end stands for inhibition by little substance, the high end for a need for much substance.

The subject of the first experiment is SK-Hep-1 cell lines (a hepatocellular carcinoma (HCC) cell). The experiment in a line: MTT assay, growth inhibition of SK-Hep-1 cells. The conditions noted are these: Homo sapiens, SK-HEP1, 48 h, SK-Hep-1 cells, 48 hours. It counts as cell-based. Here is the method:
MTT assay was used to measure growth inhibition. […] MTT (3-(4,5-dimethylthiazol-2-yl)-2,5-diphenyl tetrazolium bromide) assay was performed as follow.
(§1) The effect of individual test compounds on cell viability was assessed by using the MTT in 6 replicates. Sk-Hep-1 cells were seeded and incubated in 96-well, flat-bottomed plates for 24 hours, and were exposed to various concentrations of test compounds dissolved in DMSO (final concentration, 0.1%) for 48 hours. Controls received DMSO vehicle at a concentration equal to that in drug-treated cells. The medium was removed, replaced by 200 μL of 0.5 mg/mL MTT in 10% fetal bovine serum containing DMEM (Dulbecco's Modified Eagle Medium), and cells were incubated in the carbon dioxide incubator at 37° C. for 2 hours. Supernatants were removed from the wells and the reduced MTT dye was solubilized in 100 μL/well DMSO. Absorbance at 570 nm was determined on a plate reader.
The SK-Hep1 cells were then analyzed with western blot assay and MTT assay.
Turning to `COc1cc2nc(Cl)nc(Nc3cccc(O)c3)c2cc1OC` [Compound 11, 3-(2-Chloro-6,7-dimethoxyquinazoline-4-ylamino)phenol], the IC50 was > 40 µM. Consider `Clc1nccc(NCc2ccccc2)n1` [Compound 5, N-Benzyl-2-chloropyrimidin-4-amine], for which the IC50 was > 40 µM. Still for that read-out and setting: under `C#Cc1cccc(Nc2nc(Nc3cccc(NS(=O)(=O)c4ccc(C(F)(F)F)cc4Br)c3)nc3cc(OC)c(OC)cc23)c1` [Compound 32, 2-Bromo-N-(3-(4-(3-ethynylphenylamino)-6,7-dimethoxyquinazolin-2-ylamino)phenyl)-4-(trifluoromethyl)benzenesulfonamide] stands < 10 µM; under `C#Cc1cccc(N(C)c2nc(Cl)nc3cc(OC)c(OC)cc23)c1` [Compound 9, 2-Chloro-N-(3-ethynylphenyl)-6,7-dimethoxy-N-methyl quinazoline-4-amine], 10 to 20 µM. Same read-out and setting: the figure for `FC(F)(F)c1cc(Nc2ccnc(Cl)n2)ccc1Cl` [Compound 3, 2-Chloro-N-(4-chloro-3-(trifluoromethyl)phenyl)pyrimidin-4-amine] is > 40 µM; for `COc1cc2nc(Cl)nc(NCc3ccccc3)c2cc1OC` [Compound 17, N-Benzyl-2-chloro-6,7-dimethoxyquinazoline-4-amine] it is 10 to 20 µM. Regarding `COc1cc2nc(Cl)nc(Nc3ccc(Oc4ccccc4)cc3)c2cc1OC` [Compound 14, 2-Chloro-6,7-dimethoxy-N-(4-phenoxyphenyl)quinazoline-4-amine], the IC50 is 10 to 20 µM.

For `C#Cc1cccc(Nc2nc(Nc3ccc(Oc4ccc(C#N)cc4)cc3)nc3cc(OC)c(OC)cc23)c1` [Compound 24, 4-(4-(4-(3-Ethynylphenylamino)-6,7-dimethoxyquinazolin-2-ylamino)phenoxy)benzonitrile], the 50% inhibitory concentration (IC50) fell in the range of 10 to 20 µM. As to `Clc1cccc(Nc2ccnc(Cl)n2)c1` [Compound 2, 2-Chloro-N-(3-chlorophenyl)pyrimidin-4-amine], the IC50 was > 40 µM. Same read-out and setting: the figure for `COc1cc2nc(Cl)nc(Nc3cccc(Cl)c3)c2cc1OC` [Compound 10, 2-Chloro-N-(3-chlorophenyl)-6,7-dimethoxyquinazoline-4-amine] is 10 to 20 µM; for `COc1cc2nc(Cl)nc(Nc3ccc(O)cc3C)c2cc1OC` [Compound 15, 4-(2-Chloro-6,7-dimethoxyquinazoline-4-ylamino)-3-methylphenol] it is > 40 µM; for `C#Cc1cccc(Nc2nc(Nc3ccc(Cl)c(C(F)(F)F)c3)nc3cc(OC)c(OC)cc23)c1` [Compound 18, N^2-(4-Chloro-3-(trifluoromethyl)phenyl)-N^4-(3-ethynylphenyl)-6,7-dimethoxy-quinazoline-2,4-diamine] it is < 10 µM.

`FC(F)(F)c1cc(Nc2ccnc(Nc3ccc(Cl)c(C(F)(F)F)c3)n2)ccc1Cl` [Compound 7, N^2,N^4-Bis(4-chloro-3-(trifluoromethyl)phenyl)pyrimidine-2,4-diamine]: the IC50 fell in the range of 10 to 20 µM. For the compound `C#Cc1cccc(Nc2ccnc(Cl)n2)c1` [Compound 1, 2-Chloro-N-(3-ethynylphenyl)pyrimidin-4-amine], the IC50 was > 40 µM. The same measure, in the same setting: under `COc1cc2nc(Cl)nc(Nc3cc(C)ccc3F)c2cc1OC` [Compound 12, 2-Chloro-N-(2-fluoro-5-methylphenyl)-6,7-dimethoxy quinazoline-4-amine] stands > 40 µM; under `C#Cc1cccc(Nc2nc(Nc3cccc(NS(=O)(=O)c4ccccc4)c3)nc3cc(OC)c(OC)cc23)c1` [Compound 30, N-(3-(4-(3-ethynylphenylamino)-6,7-dimethoxyquinazolin-2-ylamino)phenyl)benzenesulfonamide], < 10 µM; under `C#Cc1cccc(Nc2nc(NCc3ccc(OC)c(OC)c3)nc3cc(OC)c(OC)cc23)c1` [Compound 29, N^2-(3,4-dimethoxybenzyl)-N^4-(3-ethynylphenyl)-6,7-dimethoxyquinazoline-2,4-diamine], < 10 µM.

Turning to `C#Cc1cccc(Nc2nc(Nc3cccc(C#C)c3)c3cc(OC)c(OC)cc3n2)c1` [Compound 25, N^2,N^4-Bis(3-ethynylphenyl)-6,7-dimethoxyquinazoline-2,4-diamine], the IC50 is < 10 µM.

As for `C#Cc1cccc(Nc2nc(Nc3cccc(CC)c3)nc3cc(OC)c(OC)cc23)c1` [Compound 26, N^2-(3-ethylphenyl)-N^4-(3-ethynylphenyl)-6,7-dimethoxy quinazoline-2,4-diamine], the IC50 was < 10 µM. Regarding `COc1cc2nc(Cl)nc(Nc3cccc(Oc4ccc(C#N)cc4)c3)c2cc1OC` [Compound 16, 4-(3-(2-Chloro-6,7-dimethoxyquinazoline-4-ylamino)phenoxy)benzonitrile], the IC50 is > 40 µM. The same measure, in the same setting: under `C#Cc1cccc(Nc2ccnc(Nc3cccc(C#C)c3)n2)c1` [Compound 6, N^2,N^4-Bis(3-ethynylphenyl)pyrimidine-2,4-diamine] stands < 10 µM; under `C#Cc1cccc(Nc2nc(Nc3cccc(Cl)c3)nc3cc(OC)c(OC)cc23)c1` [Compound 20, N^2-(3-Chlorophenyl)-N^4-(3-ethynylphenyl)-6,7-dimethoxy quinazoline-2,4-diamine], < 10 µM.

The experiment is the same for the next values; noted with them: SK-Hep-1 (HCC) cells.
`FC(F)(F)c1cc(Nc2ccnc(Nc3ccc(Cl)c(C(F)(F)F)c3)n2)ccc1Cl` [Compound 7, N^2,N^4-Bis(4-chloro-3-(trifluoromethyl)phenyl)pyrimidine-2,4-diamine]: the “growth-inhibitory activity (MTT), in words” value is “more potent anti-tumor activity than the mono-substituted pyrimidine derivatives”. With `C#Cc1cccc(Nc2ccnc(Nc3cccc(C#C)c3)n2)c1` [Compound 6, N^2,N^4-Bis(3-ethynylphenyl)pyrimidine-2,4-diamine], the “growth-inhibitory activity (MTT), in words” value is “more potent anti-tumor activity than the mono-substituted pyrimidine derivatives”.

The experiment is the same for the next values; noted with them: SK-Hep-1 cells, 48 hours.
Compound `C#Cc1cccc(N(C)c2nc(Cl)nc3cc(OC)c(OC)cc23)c1` [Compound 9, 2-Chloro-N-(3-ethynylphenyl)-6,7-dimethoxy-N-methyl quinazoline-4-amine] registered an IC50 of 12.3 ± 0.6 µM.

On to `COc1cc2nc(Cl)nc(Nc3ccc(Oc4ccccc4)cc3)c2cc1OC` [Compound 14, 2-Chloro-6,7-dimethoxy-N-(4-phenoxyphenyl)quinazoline-4-amine], for which inhibition was half-maximal at 15.3 ± 0.6 µM (IC50).

Take `C#Cc1cccc(Nc2nc(Nc3ccc(Oc4ccc(C#N)cc4)cc3)nc3cc(OC)c(OC)cc23)c1` [Compound 24, 4-(4-(4-(3-Ethynylphenylamino)-6,7-dimethoxyquinazolin-2-ylamino)phenoxy)benzonitrile]: the IC50 worked out at 14.5 µM.

Compound `C#Cc1cccc(Nc2nc(Nc3cccc(Oc4ccc(C#N)cc4)c3)nc3cc(OC)c(OC)cc23)c1` [Compound 23, 4-(3-(4-(3-Ethynylphenylamino)-6,7-dimethoxyquinazolin-2-ylamino)phenoxy)benzonitrile] showed an IC50 of 3.9 µM. Compound `C#Cc1cccc(Nc2nc(NCc3ccc(Cl)c(C(F)(F)F)c3)nc3cc(OC)c(OC)cc23)c1` [Compound 27, N^2-(4-Chloro-3-(trifluoromethyl)benzyl)-N^4-(3-ethynylphenyl)-6,7-dimethoxyquinazoline-2,4-diamine] displayed an IC50 of 2.6 µM.

Take `C#Cc1cccc(Nc2nc(Nc3cccc(NC(=O)c4ccccc4)c3)nc3cc(OC)c(OC)cc23)c1` [Compound 33, N-(3-(4-(3-ethynylphenylamino)-6,7-dimethoxyquinazolin-2-ylamino)phenyl)benzamide]: the half-maximal inhibitory concentration (IC50) came out at 2.65 µM. Turning to `C#Cc1cccc(Nc2nc(NCc3cccc(OC(F)(F)F)c3)nc3cc(OC)c(OC)cc23)c1` [Compound 28, N^4-(3-Ethynylphenyl)-6,7-dimethoxy-N^2-(3-(trifluoromethoxy)benzyl)quinazoline-2,4-diamine], 2.55 µM corresponded to half-maximal inhibition (IC50).

In the case of `C#Cc1cccc(Nc2nc(Nc3cccc(NS(=O)(=O)c4cccc(C(F)(F)F)c4)c3)nc3cc(OC)c(OC)cc23)c1` [Compound 31, N-(3-(4-(3-Ethynylphenylamino)-6,7-dimethoxyquinazolin-2-ylamino)phenyl)-3-(trifluoromethyl)benzenesulfonamide], inhibition was half-maximal at 1.95 µM (IC50).

Another experiment deals with Hep3B cell lines. The experiment is described as follows: MTT assay, growth inhibition of Hep3B cells. The conditions noted are these: Homo sapiens. The format is cell-based. Here is the method: as §1
(§2) Next, compounds 19, and 34-36 were screened against a panel of Hep3B cell lines for growth-inhibitory activities. […] Compounds 87-90, 95 and 96 were screened against a panel of PLC5 cell lines for growth-inhibitory activities.
(Tetrazolium assays rely on reduction of a dye to a coloured formazan, in cell work by metabolically active cells.)
Take `C#Cc1cccc(Nc2nc(Nc3cccc(NC(=O)c4cc(C(F)(F)F)cc(C(F)(F)F)c4)c3)nc3cc(OC)c(OC)cc23)c1` [Compound 35, N-(3-(4-(3-ethynylphenylamino)-6,7-dimethoxyquinazolin-2-ylamino)phenyl)-3,5-bis(trifluoromethyl)benzamide]: the IC50 came to 3.27 µM. The same measure, in the same setting: under `C#Cc1cccc(Nc2nc(Nc3cccc(NCc4ccccc4)c3)nc3cc(OC)c(OC)cc23)c1` [Compound 34, N^2-(3-(benzylamino)phenyl)-N^4-(3-ethynylphenyl)-6,7-dimethoxyquinazoline-2,4-diamine] stands 3.35 µM; under `C#Cc1cccc(Nc2nc(Nc3cccc(NC(=O)c4cccc(C(F)(F)F)c4)c3)nc3cc(OC)c(OC)cc23)c1` [Compound 36, N-(3-(4-(3-ethynylphenylamino)-6,7-dimethoxyquinazolin-2-ylamino)phenyl)-3-(trifluoromethyl)benzamide], 3.38 µM.

A further experiment deals with PLC5 cell lines. The experiment in a line: MTT assay, growth inhibition of PLC5 cells. The format is cell-based. The conditions noted are these: PLC5, PLC5 cells. As to the method:
as §1, §2
In turn, `C#Cc1cccc(Nc2nc(Nc3ccc(Oc4ccc(Cl)cc4)cc3)nc3cc(OC)c(OC)cc23)c1` [Compound 96, N^2-(4-(4-chlorophenoxyl)phenyl)-N^4-(3-ethynylphenyl)-6,7-dimethoxyquinazoline-2,4-diamine] gave an IC50 of 0.61 µM.

Compound `C#Cc1cccc(Nc2nc(Nc3ccc(Cl)c(Oc4ccc(C#N)c(C)c4)c3)nc3cc(OC)c(OC)cc23)c1` [Compound 89, 4-(2-chloro-5-((4-((3-ethynylphenyl)amino)-6,7-dimethoxyquinazolin-2-yl)amino)phenoxy)-2-methylbenzonitrile] registered an IC50 of 20.2 µM. This IC50 lies about 33-fold higher than the previous one. Still for that read-out and setting: under `C#Cc1cccc(Nc2nc(Nc3ccc(Oc4ccc(Cl)c(Cl)c4)cc3)nc3cc(OC)c(OC)cc23)c1` [Compound 90, N^2-(4-(3,4-dichlorophenoxyl)phenyl)-N^4-(3-ethynylphenyl)-6,7-dimethoxyquinazoline-2,4-diamine] stands 0.77 µM; under `C#Cc1cccc(Nc2nc(Nc3ccc(Cl)c(Oc4ccc(C#N)cc4)c3)nc3cc(OC)c(OC)cc23)c1` [Compound 87, 4-(2-chloro-5-((4-((3-ethynylphenyl)amino)-6,7-dimethoxyquinazolin-2-yl)amino)phenoxy)benzonitrile], 8.2 µM.
